One data set has as its system BV-2. Kind of data set: Antiinflammatory activity against mouse BV-2 cells assessed as reduction in LPS-induced NO production incubated for 24 hrs by Griess reagent based assay. The class given is functional, cell-based. The settings on record: BV-2, 24 h. On the technique in general: Griess reagent forms a coloured azo dye with nitrite.
A short description of data set [1]: Cytotoxicity against mouse BV-2 cells assessed as reduction in cell growth. The format is toxicity, cell-based.

Molecules are shown by their SMILES. pIC50: −log10 of the molar value.

For `C[C@H](CO)C1=C[C@@]2(C)C(=CC1=O)C=CC(=O)[C@H]2C`, the pIC50 – broadly, −log10 of the IC50, conventionally taken in molar units – in the data set on BV-2 was 4.40. For the same compound, the cytotoxic concentration (CC50) (as a rule, the concentration giving 50% cytotoxicity) in data set [1] was > 50 µM.
Turning to `COc1cc(/C=C/C(=O)CC(=O)/C=C/c2ccc(O)c(OC)c2)ccc1O` [CURCUMIN], in the data set on BV-2, the pIC50 is 5.07. For the same compound, in data set [1], the CC50 is > 50 µM.
As for `C=C(C)[C@]1(O)C[C@@]2(C)C(=C[C@H]1O)C=CC(=O)[C@@H]2C`, the pIC50 in the data set with BV-2 is 4.01. Moreover, the 50% cytotoxic concentration (CC50) in data set [1] is > 50 µM.
In the same order, the values of `C[C@H](CO)[C@@H]1C[C@@]2(C)C(=CC1=O)C=CC(=O)[C@H]2C` are 5.09 and > 50 µM.
In the same order, the values of `CC1=C(C)[C@]2(C=CC1=O)C[C@@]1(O)[C@H](C)CO[C@@]1(O)C2` are 5.09 and > 50 µM.
`CO[C@]12C=C3C=C(C4=CC5=C[C@]6(OC)OC[C@@H](C)[C@]6(O)C[C@]5(C)[C@@H](C)C4=O)C(=O)[C@@H](C)[C@@]3(C)C[C@@]1(O)[C@H](C)CO2`: in the data set on BV-2, the negative-log IC50 (pIC50) was 5.16. Besides, the CC50 in data set [1] is > 50 µM.
For `CO[C@]12C=C3C=CC(=O)[C@@H](C)[C@@]3(C)C[C@@]1(O)[C@H](C)CO2` [MICROSPHAEROPSISIN], in the data set with BV-2, the pIC50 was 4.10. In addition, the 50% cytotoxic concentration (CC50) in data set [1] was > 50 µM.
For `CO[C@]12C=C3C=CC(=O)[C@H](C)[C@@]3(C)C[C@@]1(O)[C@H](C)CO2` the same measures were 5.34 and > 50 µM.
With `CC(=O)OC[C@@H](C)[C@]1(O)C[C@@]2(C)C(=CC1=O)[C@@H]1[C@H](C(=O)[C@@H]2C)[C@H]2C(=O)[C@H](C)[C@@]3(C)C[C@@](O)([C@H](C)COC(C)=O)C(=O)C=C3[C@H]21`, the pIC50 with BV-2 was 5.55. For the same compound, the CC50 in data set [1] was > 50 µM.
With `CC(=O)OC[C@@H](C)[C@]1(O)C[C@@]2(C)C(=CC1=O)C=CC(=O)[C@H]2C`, in the data set with BV-2, the pIC50 is 5.11. Further, the cytotoxic concentration (CC50) in data set [1] is > 50 µM.

These data come from ChEMBL document CHEMBL5316371, “Paraconulones A-G: Eremophilane Sesquiterpenoids from the Marine-Derived Fungus Paraconiothyrium sporulosum DL-16” (J Nat Prod, 2023).
